Where a SMILES comes first, the peptide text is derived from it. [ ]: non-standard residue; d: D form. Trp(5-OH) = N[C@@H](Cc1c[nH]c2ccc(O)cc12)C(=O)O; Phe(4-Cl) = N[C@@H](Cc1ccc(Cl)cc1)C(=O)O; 4Pal = N[C@@H](Cc1ccncc1)C(=O)O; Ava = NCCCCC(=O)O; GABA = NCCCC(=O)O
Experiments:
[1] = target: T1, Ephrin type-A receptor 4 [29-209] (Homo sapiens, UniProt P54764); assay: Fluorescence Polarization Assay; details: pH 7.2; 25 °C
T1 construct: 29-209
Experimental: For competitive binding assays, 1 mL of […] EphA4-LBD was pre-incubated with the tested compounds at various concentrations in 98 mL of PBS (pH 7.2) in 96-well black plates at roomtemperature for 10 min, after which 1 mL of 500 mMFITC-labeled EphA4 peptide was added to produce a final volume of […].

[2] = target: T1, Ephrin type-A receptor 4 [29-209]; assay: Isothermal Titration Calorimetry (ITC); details: pH 6.5; 27 °C
Experimental: (§1) The purified EphA proteins (EphA4-LBD, EphA3-LBD, and EphA2-LBD) were dissolved in 50 mM potassium phosphate buffer (pH 6.5) containing 100 mM NaCl. Compound binding was detected at 27 °C by comparing either the 2D-[15N,1H]-HSQC or 2D-[13C,1H]-HSQC spectra of 50 mMEphA4-LBD in absence and presence of compounds at 50 mM. ITC were measured with Model ITC200 from Microcal/GE Life Sciences.

[3] = target: T2, Ephrin type-A receptor 3 [29-207] (Homo sapiens, UniProt P29320); assay: Isothermal Titration Calorimetry (ITC); details: pH 6.5; 27 °C
T2 construct: 29-207
T2 sequence (P29320 whole entry): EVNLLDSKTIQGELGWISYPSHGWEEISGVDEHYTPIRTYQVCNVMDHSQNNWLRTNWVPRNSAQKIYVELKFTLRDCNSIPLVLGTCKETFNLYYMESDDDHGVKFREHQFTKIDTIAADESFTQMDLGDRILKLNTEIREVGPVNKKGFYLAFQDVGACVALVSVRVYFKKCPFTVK
Experimental: as §1

T1 sequence (P54764 29-209): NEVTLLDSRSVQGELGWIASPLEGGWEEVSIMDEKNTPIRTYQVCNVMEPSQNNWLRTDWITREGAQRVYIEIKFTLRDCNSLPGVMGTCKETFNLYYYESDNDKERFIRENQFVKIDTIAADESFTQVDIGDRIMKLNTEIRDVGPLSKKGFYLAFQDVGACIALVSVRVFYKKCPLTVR

SMILES	Ki [1] [nM]	Kd [2] [nM]	Kd [3] [µM]
NCCCC(=O)N[C@@H](Cc1c[nH]c2ccc(O)cc12)C(=O)N[C@@H](Cc1ccc(Cl)cc1)C(=O)N[C@@H](Cc1ccncc1)C(=O)NCCc1c[nH]c2ccc(F)cc12 [123C3]	2220	–	–
COc1ccc2c(CCNC(=O)[C@H](Cc3ccncc3)NC(=O)[C@H](Cc3ccc(Cl)cc3)NC(=O)[C@H](Cc3c[nH]c4ccc(O)cc34)NC(=O)CCCN)c[nH]c2c1 [123C7]	1590	540	–
NCCCC(=O)N[C@@H](Cc1c[nH]c2ccc(O)cc12)C(=O)N[C@@H](Cc1ccc(Cl)cc1)C(=O)N[C@@H](Cc1ccncc1)C(=O)N[C@H](Cc1c[nH]c2ccccc12)C(N)=O [120H10] (H-[GABA][Trp(5-OH)][Phe(4-Cl)][4Pal][dW]-NH2)	960	–	–
NCCC(=O)N[C@@H](Cc1c[nH]c2ccc(O)cc12)C(=O)N[C@@H](Cc1ccc(Cl)cc1)C(=O)N[C@@H](Cc1ccncc1)C(=O)N[C@H](Cc1c[nH]c2ccccc12)C(N)=O [EphA4-LBC inhibitor, Compound 22]	2140	1200	–
COc1ccc2[nH]cc(CCNC(=O)[C@H](Cc3ccncc3)NC(=O)[C@H](Cc3ccc(Cl)cc3)NC(=O)[C@H](Cc3c[nH]c4ccc(O)cc34)NC(=O)CCCN)c2c1 [123C4]	–	–	4.55
NCCCC(=O)N[C@@H](Cc1c[nH]c2ccc(O)cc12)C(=O)N[C@@H](Cc1ccc(Cl)cc1)C(=O)N[C@@H](Cc1ccncc1)C(=O)NCCc1cccc2ccccc12 [123C12]	7670	–	–
NCCCC(=O)N[C@@H](Cc1c[nH]c2ccc(O)cc12)C(=O)N[C@@H](Cc1ccc(Cl)cc1)C(=O)N[C@@H](Cc1ccncc1)C(=O)NCCc1c[nH]c2ccccc12 [123C2]	1590	1100	–
NCCCC(=O)N[C@@H](Cc1c[nH]c2ccc(O)cc12)C(=O)N[C@@H](Cc1ccc(Cl)cc1)C(=O)N[C@@H](Cc1ccncc1)C(=O)NCCc1c[nH]c2ccc(Cl)cc12 [123C6]	3140	–	–
NCCCC(=O)N[C@@H](Cc1c[nH]c2ccc(O)cc12)C(=O)N[C@@H](Cc1ccc(Cl)cc1)C(=O)N[C@@H](Cc1ccncc1)C(=O)NCCc1c[nH]c2ccc(O)cc12 [123C5]	2570	2200	–
NCCCCC(=O)N[C@@H](Cc1c[nH]c2ccc(O)cc12)C(=O)N[C@@H](Cc1ccc(Cl)cc1)C(=O)N[C@@H](Cc1ccncc1)C(=O)N[C@H](Cc1c[nH]c2ccccc12)C(N)=O [123B1] (H-[Ava][Trp(5-OH)][Phe(4-Cl)][4Pal][dW]-NH2)	3040	–	–
CC(C)(N)C(C)(C)C(=O)N[C@@H](Cc1c[nH]c2ccc(O)cc12)C(=O)N[C@@H](Cc1ccc(Cl)cc1)C(=O)N[C@@H](Cc1ccncc1)C(=O)N[C@H](Cc1ccncc1)C(N)=O [120G2]	> 100000	–	–
NCCC(=O)N[C@@H](Cc1c[nH]c2ccc(O)cc12)C(=O)N[C@@H](Cc1ccc(Cl)cc1)C(=O)N[C@@H](Cc1ccncc1)C(=O)N[C@H](Cc1ccncc1)C(N)=O [120G1]	14000	–	–

Source: BindingDB's records for doi:10.1016/j.chembiol.2017.01.006 (Sanford Burnham Prebys Medical Discovery Institute, 2017)
